According to article PMC6891695, “Evaluation of Antifouling Potential and Ecotoxicity of Secondary Metabolites Derived from Red Algae of the Genus Laurencia” (Marine Drugs, 2019):
Where two headings read alike, the source gives them in different places.

Legend:
cyprids of A. amphitrite = experiment: whole plant or invertebrate; assay type: in vivo; details: for EC50 / IC50: Amphibalanus amphitrite; for EC50: read-out: EC50 No Metamorphosis; for IC50: read-out: IC50 Settlement; for EC50 values for settlement inhibition of barnacle cyprids (in words): consistently, 24-72 h
Method: (§1) Adult A. amphitrite (Cirripedia, Balanidae) were collected from boat docks at Port Mikrolimano and Floisvos, Athens, Greece. Animals were cleaned of epibionts with a small hard brush and meticulously identified as individuals of the species. Adult barnacles were kept in separate aerated glass tanks (20 L) containing 200-μm filtered natural seawater at 27 °C and a 12:12 L:D photoperiod. Tanks were fed with 24-h hatched Artemia sp. (Branchiopoda) nauplii and Tetraselmis suecica (Chlorodendrophyceae) and Skeletonema costatum (Bacillariophyceae) algae each day and seawater was changed on alternate days. Upon stress to induce oviposition (exposure to air for 24 h or immersion in fresh water for 5 h), adults were returned to seawater for larval release. Hatched nauplii were attracted to a point light source, collected and placed into a beaker containing 2 or 3 L of 0.7 μm GF/F (GE Healthcare, Little Chalfont, UK )-filtered natural seawater at a density of approximately 1–2 nauplii/mL with gentle aeration. Nauplii were maintained at 27 °C at a 12:12 L:D photoperiod on a diet of C. gracilis (Bacillariophyceae) provided at a density of 2 × 10^5 cells/mL. Cultured in these conditions, nauplii metamorphosed to cyprids in 5 days. Aliquots of these cyprids were collected with a wide-mouthed Pasteur pipette and aged at 4 °C for 1 day prior to use in settlement assays. Only batches of cyprids that were active and had numerous oil cells, representing energy reserves, were used in settlement assays.
(§2) Assays were conducted by adding 10 cyprids into individual wells of a 24-well polystyrene sterile microplate (Orange Scientific, Braine l’Alleud, Belgium) with 2 mL of artificial sea water (ASW) (25‰) and various concentrations of the chemical compounds as listed in Table 1. These experiments were repeated at least three times with four replicates for each concentration of any given compound (n = 120 cyprids/compound). Stock solutions for all compounds were prepared in methanol (Scharlab, Barcelona, Spain) and serial dilutions were prepared in 0.7 μm (GF/F, GE Healthcare, Little Chalfont, UK), filtered sea water to have a final concentration of 2.5% methanol in each assay solution. Plates were covered and sealed with Parafilm® to avoid evaporation and incubated at 25 °C away from any light source and examined after 24, 48 and 72 h. Each animal was inspected under a stereomicroscope and its condition was recorded. […] Both permanently attached and metamorphosed individuals were counted as settled or juveniles. The remainder were counted as ‘no metamorphosis’, i.e. animals that responded to light touch and were still cyprids at the end of the experiments with no overt signs of metamorphosis.
(§3) For EC50 or IC50 (the concentration that results in 50% stimulation or inhibition relative to the control) calculations in GraphPad Prism v.6, all data were fitted to the curve according to the following models for normalized response: Y = 100/(1 + 10^((X − LogIC50))) or Y = 100/(1 + 10^((LogEC50 − X))) depending on the trend of the curve.

in vivo = assay type: in vivo; details: Amphibalanus amphitrite, in vivo, read-out: LC50 Mortality; for LC50 at 24 h: 24 h exposure; for LC50 at 48 h: 48 h exposure; for LC50 at 72 h: 72 h exposure
Method: as §1, §2, §3

[1] = Artemia salina toxicity assay; assay type: in vivo; details: Artemia salina, in vivo, read-out: EC50 Artemia salina toxicity (mortality)
Method: (§4) The short-term toxicity assay with A. salina nauplii was used to determine the toxicity of secondary metabolites. Hatching of A. salina nauplii was carried out in ASW (35‰) using 0.5 g of cysts incubated in 500 mL seawater at a temperature of 25 ± 1 °C and lateral illumination (1000 Lux). All cysts were kept in continuous suspension with aeration and 24 h later hatched larvae (instar I) were harvested. Toxicity assays were carried out in three independent experiments in 24-well plates with four replicates of each tested concentration. Ten nauplii per well were transferred with a Pasteur pipette into the 24-well plates and each well was filled with 2 mL of ASW and 50 μL of various concentrations of the tested compounds in methanol. Control treatments received 50 μL of methanol. Plates were incubated in the dark at 25 ± 1 °C for 48 h. Mortality was assessed by recording the number of individuals with no movement of their appendages within 10 seconds and is expressed as the percentage of the total number of assessed individuals for each concentration.
as §3

A. salina nauplii = experiment: Artemia salina toxicity assay; assay type: in vivo; details: in vivo
Method: as §4, §3

Chaetoceros gracilis = Chaetoceros gracilis toxicity (phytoplankton growth) assay; assay type: cell-based; details: 96 h
Method: For phytoplankton growth toxicity assays, the criterion for assay validity was that the cell count of the negative control after 96 h should be ≥2 × 10^5 cells/mL [40].
The centric marine diatom C. gracilis Schütt (strain CCMP1315) was grown photoautotrophically in autoclaved artificial seawater (sea salts; Sigma-Aldrich, St. Louis, MO, USA) (30‰) supplemented with F/2 (half-strength medium f as subsequently modified) in 100 mL medium at 20 °C and with ambient air bubbled in the media. By monitoring cell density, an adjusted culture of >1 × 10^6 cells/mL was used for the toxicity assays. At 96 h, a 0.9 mL aliquot of each treatment was sampled, mixed with 0.1 mL Lugol and cell density was counted. Experiments were assumed valid if cell count in the control after 96 h was […].
as §3

[2] = test system: five strains of marine bacteria; experiment: Marine bacteria growth assay, positive control (strain not specified); assay type: cell-based; details: 40 μL of 0.5 M per disc
Method: The ability of selected metabolites to inhibit the growth of bacteria was assessed using five strains of marine bacteria involved in marine surface biofilm formation, namely, B. subtilis, B. mojavensis, B. thuringiensis, P. putita and P. pseudoalcaligenes. Bacterial strains were maintained on Zobel marine agar plates. Sterile filter paper discs (4 mm) (GF/F; GE Healthcare, Little Chalfont, UK) were loaded with 40 μL samples of serial dilutions of each tested metabolite, allowed to dry at room temperature and then placed on agar plates (Zobel marine agar, pH = 7.3), which were seeded with a single strain of bacteria. Plates were incubated for 24 h at 25 °C. Marine bacteria growth inhibition was determined by measuring the zone of inhibition in mm around the filter paper disc. As a positive and negative control, standard discs were loaded with 40 μL of 0.5 M penicillin G (2 to 10 mm diameter) or solvent (40 μL methanol), respectively.

SMILES | EC50 (cyprids of A. amphitrite; 24 h) [nM] | IC50 (cyprids of A. amphitrite; 24 h) [nM] | EC50 (cyprids of A. amphitrite; 48 h) [nM] | IC50 (cyprids of A. amphitrite; 48 h) [nM] | EC50 (cyprids of A. amphitrite; 72 h) [nM] | IC50 (cyprids of A. amphitrite; 72 h) [nM] | EC50 values for settlement inhibition of barnacle cyprids (in words) (cyprids of A. amphitrite) | LC50 at 24 h (in vivo) [nM] | LC50 at 48 h (in vivo) [nM] | LC50 at 72 h (in vivo) [nM] | LC50 at 24 h [1] [nM] | LC50 at 48 h [1] [nM] | A. salina exclusion criterion (>10-fold change in EC50 between 24 h and 48 h) (A. salina nauplii) | toxic effect on cyprids (cyprids of A. amphitrite; in vivo) | C. gracilis exclusion criterion (EC50 compared with bromosphaerol) (Chaetoceros gracilis) | EC50 (Chaetoceros gracilis; Chaetoceros neogracilis) [nM] | zone of inhibition (diameter) [2] [mm]
Cc1ccc(C2(C)CCC(=CBr)C2C)c(O)c1 (stereo not drawn) [Compound 4, iso-laurenisol] | 10400 | 120 | 12400 | 180 | 5850 | 340 | sub-micromolar | 3550 | 2980 | 2800 | 21100 | 739 | did not pass this criterion |  |  |  | 
C=C1C[C@H](O)[C@H](Br)C(C)(C)[C@@]12CCC(C)=C(Cl)C2 [Compound 12, elatol] | 396 | 89 | 250 | 73 | 66 | 42 | sub-micromolar | 327 | 194 | 61 | 6590 | 373 | did not pass this criterion | obvious toxic effect on cyprids |  |  | 
C#CC=CCC1OC(C(Br)CC)CC(OC(C)=O)C(Cl)CC1Cl (stereo not drawn) [Compound 22, laurencienyne] | 8 | 25 | 10 | 43 | 58700 | 55 | sub-micromolar | 6860 | 10100 | 71300 | 3070 | 9630 |  |  | did not pass this criterion | 2150 | 
CC1(C)S[C@@H]2[C@H](NC(=O)Cc3ccccc3)C(=O)N2[C@H]1C(=O)O [penicillin G] |  |  |  |  |  |  |  |  |  |  |  |  |  |  |  |  | 2 to 10
